Test results published in patent US8324264B1, “Inhibitors of bacterial biofilms and related methods” (Sequoia Sciences, Inc., priority 2011, dated 2012).

Assays:
[1] = system: E. coli biofilms; assay: Biofilm growth assay (spreading biofilm on semi-solid agar), E. coli; format: cell-based; conditions: biofilm growth assay, overnight 37° C., vs negative controls; Tables 1-5
In short: (§1)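 Values are compound concentrations (μg/ml) that cut the spreading-biofilm zone area by ≥85% relative to negative controls after overnight 37 °C growth from 5 μL central inoculum. E. coli plates: LB, 0.6% agar, 0.5% glucose; P. aeruginosa plates: M8 agar plus 0.2% glucose, 100 μM CaCl2, 1 mM MgSO4, 0.5% Casamino acids.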

[2] = system: P. aeruginosa biofilms; assay: Biofilm growth assay (spreading biofilm on semi-solid agar), P. aeruginosa; format: cell-based; conditions: biofilm growth assay, overnight 37° C., vs negative controls; Tables 1-5
In short: as §1

Row | SMILES | E. coli: concentration that reduces the area of the spreading biofilm by greater than or equal to 85% [1] [µg/mL] | P. aeruginosa: concentration that reduces the area of the spreading biofilm by greater than or equal to 85% [2] [µg/mL]
1 | CC1(C)CC[C@]2(C(=O)O)CC[C@]3(C)C(=C(c4ccoc4CN4CCNCC4)CC4[C@@]5(C)Cc6c(n[nH]c6N)C(C)(C)[C@@H]5CC[C@]43C)[C@@H]2C1 (stereo partly drawn) [Example 35, (4aS,6aS,6bR,8aR,13aR,15bS)-12-Amino-2,2,6a,6b,9,9,13a-heptamethyl-15-(2-(piperazin-1-ylmethyl)furan-3-yl)-2,3,4,4a,5,6,6a,6b,7,8,8a,9,11,13,13a,13b,14,15b-octadecahydro-1H-chryseno[1,2-f]indazole-4-a-carboxylic acid] | 1 | >1
2 | CN1CCN(Cc2occc2C2=C3[C@@H]4CC(C)(C)CC[C@]4(C(=O)O)CC[C@@]3(C)[C@]3(C)CC[C@H]4C(C)(C)c5n[nH]c(N)c5C[C@]4(C)C3C2)CC1 (stereo partly drawn) [Example 36, (4aS,6aS,6bR,8aR,13aR,15bS)-12-Amino-2,2,6a,6b,9,9,13a-heptamethyl-15-(2-((4-methylpiperazin-1-yl)methyl)furan-3-yl)-2,3,4,4a,5,6,6a,6b,7,8,8a,9,11,13,13a,13b,14,15b-octadecahydro-1H-chryseno[1,2-f]indazole-4-a-carboxylic acid] | 2 | >1
3 | CC1(C)CC[C@]2(C(=O)O)CC[C@]3(C)C(=C(c4ccoc4CN4CCCC4)CC4[C@@]5(C)Cc6c(n[nH]c6N)C(C)(C)C5CC[C@]43C)C2C1 (stereo partly drawn) [Example 37, (4aS,6aS,6bR,13aR)-12-Amino-2,2,6a,6b,9,9,13a-heptamethyl-15-(2-(pyrrolidin-1-ylmethyl)furan-3-yl)-2,3,4,4a,5,6,6a,6b,7,8,8a,9,11,13,13a,13b,14,15b-octadecahydro-1H-chryseno[1,2-f]indazole-4-a-carboxylic acid] | 1 | >1
4 | CC1(C)CC[C@]2(C(=O)O)CC[C@]3(C)C(=C(c4coc(CN5CCCC5)c4)CC4[C@@]5(C)Cc6c(n[nH]c6N)C(C)(C)C5CC[C@]43C)C2C1 (stereo partly drawn) [Example 38, (4aS,6aS,6bR,13aR)-12-Amino-2,2,6a,6b,9,9,13a-heptamethyl-15-(5-(pyrrolidin-1-ylmethyl)furan-3-yl)-2,3,4,4a,5,6,6a,6b,7,8,8a,9,11,13,13a,13b,14,15b-octadecahydro-1H-chryseno[1,2-f]indazole-4-a-carboxylic acid] | 2 | 1
5 | CC1(C)CC[C@]2(C(=O)O)CC[C@]3(C)C(=C(c4coc(CN5CCNCC5)c4)CC4[C@@]5(C)Cc6c(n[nH]c6N)C(C)(C)C5CC[C@]43C)C2C1 (stereo partly drawn) [Example 39, (4aS,6aS,6bR,13aR)-12-Amino-2,2,6a,6b,9,9,13a-heptamethyl-15-(5-(piperazin-1-ylmethyl)furan-3-yl)-2,3,4,4a,5,6,6a,6b,7,8,8a,9,11,13,13a,13b,14,15b-octadecahydro-1H-chryseno[1,2-f]indazole-4-a-carboxylic acid] | 2 | 1
6 | CC1(C)CC[C@]2(C(=O)O)CC[C@]3(C)C(=C(c4coc(CN5CCOCC5)c4)CC4[C@@]5(C)Cc6c(n[nH]c6N)C(C)(C)[C@@H]5CC[C@]43C)[C@@H]2C1 (stereo partly drawn) [Example 40, (4aS,6aS,6bR,8aR,13aR,15bS)-12-Amino-2,2,6a,6b,9,9,13a-heptamethyl-15-(5-(morpholinomethyl)furan-3-yl)-2,3,4,4a,5,6,6a,6b,7,8,8a,9,11,13,13a,13b,14,15b-octadecahydro-1H-chryseno[1,2-f]indazole-4-a-carboxylic acid] | 2 | 0.5
7 | CC1(C)CC[C@]2(C(=O)O)CC[C@]3(C)C(=C(c4ccc(N)nc4)CC4[C@@]5(C)Cc6c(n[nH]c6N)C(C)(C)[C@@H]5CC[C@]43C)[C@@H]2C1 (stereo partly drawn) [Example 41, (4aS,6aS,6bR,8aR,13aR,15bS)-12-Amino-15-(6-aminopyridin-3-yl)-2,2,6a,6b,9,9,13a-heptamethyl-2,3,4,4a,5,6,6a,6b,7,8,8a,9,11,13,13a,13b,14,15b-octadecahydro-1H-chryseno[1,2-f]indazole-4-a-carboxylic acid] | 2 | 1
8 | COc1ccc(C2=C3[C@@H]4CC(C)(C)CC[C@]4(C(=O)O)CC[C@@]3(C)[C@]3(C)CC[C@H]4C(C)(C)c5n[nH]c(N)c5C[C@]4(C)C3C2)cn1 (stereo partly drawn) [Example 42, (4aS,6aS,6bR,8aR,13aR,15bS)-12-Amino-15-(6-methoxypyridin-3-yl)-2,2,6a,6b,9,9,13a-heptamethyl-2,3,4,4a,5,6,6a,6b,7,8,8a,9,11,13,13a,13b,14,15b-octadecahydro-1H-chryseno[1,2-f]indazole-4-a-carboxylic acid] | 1 | 0.25
9 | CNc1ccc(C2=C3[C@@H]4CC(C)(C)CC[C@]4(C(=O)O)CC[C@@]3(C)[C@]3(C)CC[C@H]4C(C)(C)c5n[nH]c(N)c5C[C@]4(C)C3C2)cn1 (stereo partly drawn) [Example 43, (4aS,6aS,6bR,8aR,13aR,15bS)-12-Amino-2,2,6a,6b,9,9,13a-heptamethyl-15-(6-(methylamino)pyridin-3-yl)-2,3,4,4a,5,6,6a,6b,7,8,8a,9,11,13,13a,13b,14,15b-octadecahydro-1H-chryseno[1,2-f]indazole-4-a-carboxylic acid] | 1 | 1
10 | CN(C)c1ccc(C2=C3[C@@H]4CC(C)(C)CC[C@]4(C(=O)O)CC[C@@]3(C)[C@]3(C)CC[C@H]4C(C)(C)c5n[nH]c(N)c5C[C@]4(C)C3C2)cn1 (stereo partly drawn) [Example 44, (4aS,6aS,6bR,8aR,13aR,15bS)-12-Amino-15-(6-(dimethylamino)pyridin-3-yl)-2,2,6a,6b,9,9,13a-heptamethyl-2,3,4,4a,5,6,6a,6b,7,8,8a,9,11,13,13a,13b,14,15b-octadecahydro-1H-chryseno[1,2-f]indazole-4-a-carboxylic acid] | 2 | 0.5
11 | CC1(C)CC[C@]2(C(=O)O)CC[C@]3(C)C(=C(c4ccc(N5CCCC5)nc4)CC4[C@@]5(C)Cc6c(n[nH]c6N)C(C)(C)C5CC[C@]43C)C2C1 (stereo partly drawn) [Example 45, (4aS,6aS,6bR,13aR)-12-Amino-2,2,6a,6b,9,9,13a-heptamethyl-15-(6-(pyrrolidin-1-yl)pyridin-3-yl)-2,3,4,4a,5,6,6a,6b,7,8,8a,9,11,13,13a,13b,14,15b-octadecahydro-1H-chryseno[1,2-f]indazole-4-a-carboxylic acid] | 1 | 0.5
